Test system: transglutaminase 1 (TG1) mRNA in human epidermal keratinocytes
Assay: Expression of transglutaminase 1 (TG1) by differentiating keratinocytes (real time PCR of TG1 mRNA)
Assay type: cell-based
Settings: substances alone: retinol 1×10−10 M, TSA 10−9 M; 1.3 mM calcium; 72 hours; relative to non-treated cells
From the text: This example illustrates how the HDAC inhibitor Trichostatin A and Retinol work synergistically. An in vitro cell culture of human primary keratinocytes has been chosen as test system. This in vitro cell culture model is useful to study differentiation processes and is able to simulate the in vivo situation in human skin (Poumay et al., 1999). To monitor differentiation processes in vitro and in vivo transglutaminase 1 is a well known marker molecule (Polakowska et al., 1999).
Epidermal keratinocytes were isolated from human foreskin biopsies and cultured in keratinocyte serum free medium (KSFM made by GIBCO) in a growth chamber with 37° C. and 5% CO2. At the second passage, cells were transferred to 6 well plates and allowed to reach approximately 50% surface confluence.
Retinol and TSA were solubilized in ethanol or ethanol/tetrahydrofuran respectively. Retinol solutions were handled under yellow light conditions only. […]
Seventy-two hours after the beginning of the treatment, cells were harvested and the RNA extracted. […] Relative quantification of TG1 mRNA transcript levels in control versus treatment cultures were determined using multiplexed real time PCR analysis. […]

modulation of the terminal differentiation process in epidermal keratinocytes (TG1 mRNA) | SMILES
only weak modulation | CC1=C(/C=C/C(C)=C/C=C/C(C)=C/CO)C(C)(C)CCC1 [Retinol]
only weak modulation | CC(/C=C/C(=O)NO)=C\[C@@H](C)C(=O)c1ccc(N(C)C)cc1 [TSA, Trichostatin A]

— patent US20100286278A1, “Composition comprising an HDAC inhibitor in combination with a retinoid” (DSM IP ASSETS B.V., priority 2004, published 2010)
